The text below walks through data of patent US12161694B2, “Methods and compositions for regulating innate lymphoid cell inflammatory responses” (The Broad Institute, Inc., priority 2017, dated 2024).

Test [1] concerns ILCs sorted from the lungs of naive mice. Kind of test: ILC in vitro culture: Il5/Il13 mRNA (qPCR) and IL-5/IL-13 in supernatant (LegendPlex). In kind it is cell-based, mouse. On the procedure: Fluorescence-activated cell sorting of innate lymphoid cells. After dissociation, single cell suspensions were incubated with CD90.2 MicroBeads (Miltenyi Biotec) on ice and enriched for CD90.2^+ cells by magnetic separation using LS columns according to the manufacturer's protocol. CD90.2^+ lung cells were then stained on ice with antibodies for sorting. ILCs were defined as 7AAD^− CD45^+ CD90.2^+ CD127^+ Lineage (CD11b, CD11c, CD19, NK1.1, CD3ε, CD4, CD8a, TCRβ, TCRγδ)^− cells and sorted on a BD FACS Aria (BD Biosciences).
ILC in vitro culture. For in vitro experiments 5,000 ILCs/well were cultured in a 96 well round bottom plate with 20 ng/ml IL-7 (R&D Systems), 200 ng/ml IL-33 (BioLegend) or 200 ng/ml IL-25 (R&D Systems) with or without 1 μg/ml Neuromedin U (US Biological). In some cases purified CD90.2^+ lung cells were first labeled with CellTrace Violet (Thermo Fisher Scientific), then sorted as described above, and cultured for 3 days under the indicated conditions.
(§1) Quantitative real-time PCR. RNA was isolated using RNeasy Plus Mini Kit (Qiagen) and reverse transcribed to cDNA with iScript cDNA Synthesis Kit (Bio-Rad). Gene expression was analyzed by quantitative real-time PCR on a ViiA7 System (Thermo Fisher Scientific) using TaqMan Fast Advanced Master Mix (Thermo Fisher Scientific) with the following primer/probe sets: IL-5 (Mm00439646_m1), IL-13 (Mm00434204_m1), IL-17RB (Mm00444709_m1), Nmur1 (Mm04207994 m1), Nmur2 (Mm00600704_m1), and β-Actin (Applied Biosystems). Expression values were calculated relative to β-Actin detected in the same sample by duplex qPCR.
Cytokine quantification. Cytokine concentrations in BAL fluid, lung and supernatant of in vitro ILC cultures were analyzed by the LegendPlex Mouse Th Cytokine Panel (13-plex) (BioLegend) according to the manufacturer's instructions and analyzed on a FACS Calibur (BD Biosciences).
Fluorescence-activated cell sorting of innate lymphoid cells. After dissociation, single cell suspensions were incubated with CD90.2 MicroBeads (Miltenyi Biotec) on ice and enriched for CD90.2^+ cells by magnetic separation using LS columns according to the manufacturer's protocol. CD90.2^− lung cells were then stained on ice with antibodies for sorting. ILCs were defined as 7AAD^− CD45^+ CD90.2^+ CD127^+ Lineage (CD11b, CD 11c, CD19, NK1.1, CD3ε, CD4, CD8a, TCRβ, TCRγδ)^− cells and sorted on a BD FACS Aria (BD Biosciences).
ILC in vitro culture. For in vitro experiments 5,000 ILCs/well were cultured in a 96 well round bottom plate with 20 ng/ml IL-7 (R&D Systems), 200 ng/ml IL-25 (R&D Systems) or 20 ng/ml, 2 ng/ml or 0.2 ng/ml IL-33 (BioLegend) with or without 1 μg/ml Neuromedin U (US Biological). In some cases purified CD90.2^+ lung cells were first labeled with CellTrace Violet (Thermo Fisher Scientific), then sorted as described above, and cultured for 3 days under the indicated conditions.
as §1, with “Il5” for “IL-5”, “Il13” for “IL-13”, “Il17rb” for “IL-17RB”, “(Mm04207994_m1),” for “(Mm04207994 m1),”, “(Mm00600704_m1), Nmu (Mm00479868_m1)” for “(Mm00600704_m1),”, “Actb” for “β-Actin”
Background: In qPCR the cycle at which signal appears reflects the starting amount.

The test system of the next test is Th2 cells. Kind of test: T cell in vitro culture (Th2 differentiation), Il5/Il13 qPCR. In kind it is cell-based, mouse. As to conditions: Th2 cells cultured with or without NMU 1 μg/ml. The procedure:
as §1
T cell in vitro culture. CD4^+ T cells were isolated as described previously^4 and sorted for naive T cells (CD4^+ CD62L^+ CD44^low) on a FACS Aria. Naive T cells were cultured in the presence of plate-bound anti-CD3 (1 μg/ml; Bio X Cell) and anti-CD28 (1 μg/ml; Bio X Cell) antibodies. […]
Quantitative real-time PCR. […] Gene expression was analyzed by quantitative real-time PCR on a ViiA7 System (Thermo Fisher Scientific) using TaqMan Fast Advanced Master Mix (Thermo Fisher Scientific) with the following primer/probe sets: Il5 (Mm00439646_m1), Il13 (Mm00434204_m1), Il17rb (Mm00444709_m1), Nmur1 (Mm04207994_m1), Nmur2 (Mm00600704_m1), Nmu (Mm00479868_m1) and Actb (Applied Biosystems). Expression values were calculated relative to Actb detected in the same sample by duplex qPCR. […]

“Also recorded” adds a separate entry of the source. Where no end group is shown, it is not given here.

For the substance “Neuromedin U (FRVDEEFQSPFASQSRGYFLFRPRN-NH2; listed as Homo sapiens) [NMU, neuropeptide ligand of Nmur1 (US Biological)]”, the “Il5 and Il13 levels, NMU in combination with IL-33” value in test [1] (Example 1: ILCs in vitro, IL-33 200 ng/ml with NMU 1 μg/ml vs IL-33 alone) is reported as “did not significantly alter; also recorded: neither amplifies”. Also, the “IL-33-induced IL-5 and IL-13 secretion with NMU” value in test [1] (Example 2: ILCs in vitro, IL-33 20, 2 or 0.2 ng/ml with NMU 1 μg/ml, LegendPlex) was “enhanced”. Further, in test [1] (IL-7 20 ng/ml, IL-25 200 ng/ml, IL-33, NMU 1 μg/ml, mRNA by qPCR (protein by LegendPlex)), the “Il5 and Il13 expression in ILCs cultured in vitro” value is “modest upregulation; also recorded: far lower than those observed in response to IL-25 and IL-33; also recorded: only mildly upregulated”. The “increase of IL-5 and IL-13 protein levels in response to IL-25” value in test [1] (ILCs in vitro, IL-25 in conjunction with NMU vs IL-25 alone, LegendPlex) is listed as “at least 8 fold”. In test [1] (ILCs in vitro, IL-25 in conjunction with NMU vs IL-25 alone, qPCR), the “increase of Il5 and Il13 mRNA levels in response to IL-25” value is “at least 3.6 fold”. In the test with Th2 cells, the “Il5 and Il13 expression in Th2 cells” value was “not observed; also recorded: similar; also recorded: did not affect; also recorded: does not alter”.
